Source: patent US9783523B2, “N-acylimino heterocyclic compounds” (BASF SE, priority 2013, dated 2017)

Assays:
Format in all cases: in vivo
Myzus persicae = assay: Green peach aphid (Myzus persicae), systemic control, liquid artificial diet under membrane in 96-well microtiter plates; conditions: 72 h, read-out: mortality in comparison with untreated controls
Source text: General conditions: If not otherwise specified, most test solutions are to be prepared as follows: The active compound is to be dissolved at the desired concentration in a mixture of 1:1 (vol:vol) distilled water:acteon. Further, the test solutions are to be prepared at the day of use (and, if not otherwised specified, in general at concentrations wt/vol).
For evaluating control of green peach aphid (Myzus persicae) through systemic means, the test unit consists of 96-well-microtiter plates containing liquid artificial diet under an artificial membrane.
The compounds are formulated using a solution containing 75% v/v water and 25% v/v DMSO. Different concentrations of formulated compounds are pipetted into the aphid diet, using a custom built pipetter, at two replications.
After application, 5-8 adult aphids are placed on the artificial membrane inside the microtiter plate wells. The aphids are then allowed to suck on the treated aphid diet and incubated at about 23+1° C. and about 50+5% relative humidity for 3 days. Aphid mortality and fecundity is then visually assessed.

Megoura viciae = assay: Vetch aphid (Megoura viciae), sprayed bean leaf disks in microtiter plates; conditions: foliar, 144 h, read-out: mortality in comparison with untreated controls
Experimental: The active compounds were formulated in 3:1 (vol:vol) water:DMSO with different concentrations of formulated compounds.
Bean leaf disks were placed into microtiterplates filled with 0.8% agar-agar and 2.5 ppm OPUS™. The leaf disks were sprayed with 2.5 μl of the test solution and 5 to 8 adult aphids were placed into the microtiter plates which were then closed and kept at 23±1° C. and 50±5% relative humidity under fluorescent light for 6 days. Mortality was assessed on the basis of vital, reproduced aphids. Aphid mortality and fecundity was then visually assessed.

Aphis gossypi = assay: Cotton aphid (Aphis gossypi), infested cotton plants sprayed; conditions: 120 h, read-out: mortality in comparison with untreated controls
Experimental: The active compounds were formulated in cyclohexanone as a 10,000 ppm solution supplied in 1.3 ml ABgene® tubes. These tubes were inserted into an automated electrostatic sprayer equipped with an atomizing nozzle and they served as stock solutions for which lower dilutions were made in 1:1 (vol:vol) water:aceton. A nonionic surfactant (Kinetic®) was included in the solution at a volume of 0.01% (v/v).
Cotton plants at the cotyledon stage were infested with aphids prior to treatment by placing a heavily infested leaf from the main aphid colony on top of each cotyledon. Aphids were allowed to transfer overnight to accomplish an infestation of 80-100 aphids per plant and the host leaf was removed. The infested plants were then sprayed by an automated electrostatic plant sprayer equipped with an atomizing spray nozzle. The plants were dried in the sprayer fume hood, removed from the sprayer, and then maintained in a growth room under fluorescent lighting in a 24-hr photoperiod at 25° C. and 20-40% relative humidity. Aphid mortality on the treated plants, relative to mortality on untreated control plants, was determined after 5 days.

Aphis craccivora = assay: Cowpea aphid (Aphis craccivora), potted cowpea plants sprayed; conditions: 72 h, read-out: mortality in comparison with untreated controls
Experimental: The active compound is dissolved at the desired concentration in a mixture of 1:1 (vol:vol) distilled water:acetone. Surfactant (Alkamuls® EL 620) is added at a rate of 0.1% (vol/vol). The test solution is prepared at the day of use.
Potted cowpea plants are colonized with approximately 50-100 aphids of various stages by manually transferring a leaf tissue cut from infested plant 24 hours before application. Plants are sprayed after the pest population has been recorded. Treated plants are maintained on light carts at about 28° C. Percent mortality is assessed after 72 hours.

Dichromothrips corbetti = assay: Orchid thrips (Dichromothrips corbetti), floral-immersion technique; conditions: 72 h, read-out: mortality in comparison with untreated controls
Experimental: Dichromothrips corbetti adults used for bioassay are obtained from a colony maintained continuously under laboratory conditions. For testing purposes, the test compound is diluted in a 1:1 mixture of acetone:water (vol:vol), plus 0.01% vol/vol Alkamuls® EL 620 surfactant.
Thrips potency of each compound is evaluated by using a floral-immersion technique. Plastic petri dishes are used as test arenas. All petals of individual, intact orchid flowers are dipped into treatment solution and allowed to dry. Treated flowers are placed into individual petri dishes along with about 20 adult thrips. The petri dishes are then covered with lids. All test arenas are held under continuous light and a temperature of about 28° C. for duration of the assay. After 3 days, the numbers of live thrips are counted on each flower, and along inner walls of each petri dish. The percent mortality is recorded 72 hours after treatment.

Nephotettix virescens = assay: Rice green leafhopper (Nephotettix virescens), sprayed rice seedlings; conditions: 72 h, read-out: mortality in comparison with untreated controls
Experimental: Rice seedlings are cleaned and washed 24 hours before spraying. The active compounds are formulated in 50:50 acetone:water (vol:vol), and 0.1% vol/vol surfactant (EL 620) is added. Potted rice seedlings are sprayed with 5 ml test solution, air dried, placed in cages and inoculated with 10 adults. Treated rice plants are kept at about 28-29° C. and relative humidity of about 50-60%. Percent mortality is recorded after 72 hours.

Nilaparvata lugens = assay: Rice brown plant hopper (Nilaparvata lugens), sprayed rice seedlings; conditions: 72 h, read-out: mortality in comparison with untreated controls
Experimental: Rice seedlings are cleaned and washed 24 hours before spraying. The active compounds is formulated in 50:50 acetone:water (vol:vol) and 0.1% vol/vol surfactant (EL 620) was added. Potted rice seedlings are sprayed with 5 ml test solution, air dried, placed in cages and inoculated with 10 adults. Treated rice plants are kept at about 28-29° C. and relative humidity of about 50-60%. Percent mortality is recorded after 72 hours.

Anthonomus grandis = assay: Boll weevil (Anthonomus grandis), eggs on insect diet in 24-well microtiter plates; conditions: 120 h, read-out: mortality in comparison with untreated controls
Experimental: The compounds were formulated in 3:1 (vol:vol) water:DMSO.
For evaluating control of boll weevil (Anthonomus grandis) the test unit consisted of 24-well-microtiter plates containing an insect diet and 20-30 A. grandis eggs. Different concentrations of formulated compounds were sprayed onto the insect diet at 20 μl, using a custom built micro atomizer, at two replications. After application, the microtiter plates were incubated at 23±1° C. and 50±5% relative humidity for 5 days. Egg and larval mortality was then visually assessed.

Ceratitis capitata = assay: Mediterranean fruitfly (Ceratitis capitata), eggs on insect diet in microtiter plates; conditions: 120 h, read-out: mortality in comparison with untreated controls
Experimental: For evaluating control of Mediterranean fruitfly (Ceratitis capitata) the test unit consisted of microtiter plates containing an insect diet and 50-80 C. capitata eggs.
The compounds were formulated using a solution containing 75% v/v water and 25% v/v DMSO. Different concentrations of formulated compounds were sprayed onto the insect diet at 5 μl, using a custom built micro atomizer, at two replications.
After application, microtiter plates were incubated at about 28±1° C. and about 80±5% relative humidity for 5 days. Egg and larval mortality was then visually assessed.

Bemisia argentifolii = assay: Silverleaf whitefly (Bemisia argentifolii) adults, sprayed cotton plants; conditions: 72 h, read-out: mortality in comparison with untreated controls
Experimental: The active compounds were formulated in cyclohexanone as a 10,000 ppm solution supplied in 1.3 ml ABgene® tubes. These tubes were inserted into an automated electrostatic sprayer equipped with an atomizing nozzle and they served as stock solutions for which lower dilutions were made in 1:1 (vol:vol) water: aceton. A nonionic surfactant (Kinetic®) was included in the solution at a volume of 0.01% (v/v).
Cotton plants at the cotyledon stage (one plant per pot) were sprayed by an automated electrostatic plant sprayer equipped with an atomizing spray nozzle. The plants were dried in the sprayer fume hood and then removed from the sprayer. Each pot was placed into a plastic cup and 10 to 12 whitefly adults (approximately 3-5 days old) were introduced. The insects were collected using an aspirator and 0.6 cm, nontoxic Tygon® tubing (R-3603) connected to a barrier pipette tip. The tip, containing the collected insects, was then gently inserted into the soil containing the treated plant, allowing insects to crawl out of the tip to reach the foliage for feeding. Cups were covered with a reusable screened lid (150-micron mesh polyester screen PeCap from Tetko, Inc.). […] Mortality was assessed 3 days after treatment, compared to untreated control plants.

Heliothis virescens = assay: Tobacco budworm (Heliothis virescens), eggs on insect diet in 96-well microtiter plates; conditions: 120 h, read-out: mortality in comparison with untreated controls
Experimental: For evaluating control of tobacco budworm (Heliothis virescens) the test unit consisted of 96-well-microtiter plates containing an insect diet and 15-25 H. virescens eggs.
The compounds were formulated using a solution containing 75% v/v water and 25% v/v DMSO. Different concentrations of formulated compounds were sprayed onto the insect diet at 10 μl, using a custom built micro atomizer, at two replications.
After application, microtiter plates were incubated at about 28+1° C. and about 80+5% relative humidity for 5 days. Egg and larval mortality was then visually assessed.

Plutella xylostella = assay: Diamond back moth (Plutella xylostella), dipped cabbage leaves; conditions: 72 h, read-out: mortality in comparison with untreated controls
Experimental: The active compound is dissolved at the desired concentration in a mixture of 1:1 (vol:vol) distilled water:aceteone. Surfactant (Alkamuls® EL 620) is added at a rate of 0.1% (vol/vol). The test solution is prepared at the day of use.
Leaves of cabbage were dipped in test solution and air-dried. Treated leaves were placed in petri dish eslined with moist filter paper and inoculated with ten 3rd instar larvae. Mortality was recorded 72 hours after treatment. Feeding damages were also recorded using a scale of 0-100%.

Spodoptera eridania = assay: Southern armyworm (Spodoptera eridania), sprayed lima bean plants; conditions: 96 h, read-out: mortality in comparison with untreated controls
Experimental: The active compounds were formulated in cyclohexanone as a 10,000 ppm solution supplied in tubes. The tubes were inserted into an automated electrostatic sprayer equipped with an atomizing nozzle and they served as stock solutions for which lower dilutions were made in 50% acetone:50% water (v/v). A nonionic surfactant (Kinetic®) was included in the solution at a volume of 0.01% (v/v).
Lima bean plants (variety Sieva) were grown 2 plants to a pot and selected for treatment at the 1st true leaf stage. Test solutions were sprayed onto the foliage by an automated electrostatic plant sprayer equipped with an atomizing spray nozzle. The plants were dried in the sprayer fume hood and then removed from the sprayer. Each pot was placed into perforated plastic bags with a zip closure. About 10 to 11 armyworm larvae were placed into the bag and the bags zipped closed. Test plants were maintained in a growth room at about 25° C. and about 20-40% relative humidity for 4 days, avoiding direct exposure to fluorescent light (24 hour photoperiod) to prevent trapping of heat inside the bags. Mortality and reduced feeding were assessed 4 days after treatment, compared to untreated control plants.

Nezara viridula = assay: Green soldier stink bug (Nezara viridula), sprayed soybean pods in Petri dishes; conditions: 120 h, read-out: mortality in comparison with untreated controls
Experimental: The active compound is dissolved at the desired concentration in a mixture of 1:1 (vol:vol) distilled water:aceteone. Surfactant (Kinetic HV) is added at a rate of 0.01% (vol/vol). The test solution is prepared at the day of use.
Soybean pods were placed in 90×50 mm glass Petri dishes lined with moist filter paper and inoculated with ten late 3rd instar N. viridula. Using a hand atomizer, an approximately 2 ml solution is sprayed into each Petri dish. Treated cups were kept at about 25-26° C. and relative humidity of about 65-70%. Percent mortality was recorded after 5 days.

CO/N=C/C(=O)/N=c1\ccccn1Cc1ccc(Cl)nc1 [Compound I-15]
≥ 75%: mortality at 2500 ppm (Myzus persicae) | mortality at 2500 ppm (Megoura viciae) | mortality at 300 ppm (Aphis gossypi) | mortality at 500 ppm (Aphis craccivora) | mortality at 500 ppm (Dichromothrips corbetti) | mortality at 300 ppm (Nephotettix virescens) | mortality at 500 ppm (Nilaparvata lugens) | mortality at 2500 ppm (Anthonomus grandis) | mortality at 2500 ppm (Ceratitis capitata) | mortality at 300 ppm (Bemisia argentifolii) | mortality at 2500 ppm (Heliothis virescens) | mortality at 500 ppm (Plutella xylostella) | mortality at 300 ppm (Spodoptera eridania) | mortality at 500 ppm (Nezara viridula)
